Counter-ions that a name gives are not always drawn.
Key:
IRAK4 [1] = target: T1, IRAK4 (Homo sapiens, UniProt Q9NWZ3); assay: WB detection of proteolysis (Western Blot, THP-1 cells); format: cell-based
T1 sequence (Q9NWZ3 1-460): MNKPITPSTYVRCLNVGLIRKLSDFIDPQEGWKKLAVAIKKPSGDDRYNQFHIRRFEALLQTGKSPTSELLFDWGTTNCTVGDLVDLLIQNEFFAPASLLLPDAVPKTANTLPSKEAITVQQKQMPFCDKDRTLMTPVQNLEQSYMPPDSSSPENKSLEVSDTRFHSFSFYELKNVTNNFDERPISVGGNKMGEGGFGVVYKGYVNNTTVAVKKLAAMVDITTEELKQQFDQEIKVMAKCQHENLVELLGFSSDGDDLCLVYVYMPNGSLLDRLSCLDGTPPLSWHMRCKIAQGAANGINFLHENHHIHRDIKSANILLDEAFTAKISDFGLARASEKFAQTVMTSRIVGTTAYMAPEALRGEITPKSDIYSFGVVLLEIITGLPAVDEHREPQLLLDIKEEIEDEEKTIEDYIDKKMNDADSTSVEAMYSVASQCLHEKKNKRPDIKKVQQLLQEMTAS
Outline: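 IRAK4 level in RIPA lysates read by Western blot with Odyssey imaging; values from bell-shaped non-linear fit with two four-parameter sections (Plateau1, Plateau2, Dip, LogEC50_1/2, nH1/2).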

IRAK4 [2] = target: T1, IRAK4; assay: Hibit fluorescence detection of proteolysis (IRAK4-HiBiT in HEK293T cells); format: cell-based; set-up: host or cells: HEK293T (ATCC); conditions: for Dmax: HEK-293T; for DC50: IRAK4-HiBiT, HEK293T cells, 24 h
Outline: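 Degradation read-out: luminescence from lytic HiBiT detection (15 min, room temperature) after 24 h compound exposure (37 °C, 5% CO2) of HEK293T cells transiently expressing IRAK4 fused to a HiBiT tag. Data fitted to a bell-shaped four-parameter model giving two EC50 values.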

[3] = Western Blot, THP-1 cells, 24 h, read-out: DC50
[4] = Western Blot, THP-1 cells, 24 h, read-out: Dmax

| Structure (SMILES) | DC50 (IRAK4 [1]; [3]) [µM] | Dmax (IRAK4 [1]; [4]) [%] | Dmax (IRAK4 [2]) [%] | DC50 (IRAK4 [2]) [µM] | Dmax (IRAK4 [1]; THP-1) [%] | DC50 (IRAK4 [1]; Western Blot, THP-1 cells, 24 h) [µM] |
| --- | --- | --- | --- | --- | --- | --- |
| Cn1c(=O)n(C2CCC(=O)NC2=O)c2cccc(N3CCC4(CCN(C[C@H]5CC[C@H](n6cc(-n7cc(-c8ccc9cc(C(N)=O)cnn89)nn7)c(C(F)F)n6)CC5)CC4)C3)c21 (stereo partly drawn) [Example 62, 7-(1-(3-(difluoromethyl)-1-((1r,4r)-4-((2-(1-(2,6-dioxopiperidin-3-yl)-3-methyl-2-oxo-2,3-dihydro-1H-benzo[d]imidazol-4-yl)-2,8-diazaspiro[4.5]dec-8-yl)methyl)cyclohexyl)-1H-pyrazol-4-yl)-1H-pyrazol-1,2,3-triazol-4yl)pyrrolo[1,2-b]pyridazine-3-carboxamide] | < 0.01 | > 70 | > 80 | < 0.0005 | – | – |
| C[C@H]1CN(c2cccc3c2n(C)c(=O)n3C2CCC(=O)NC2=O)CCN1C[C@H]1CC[C@H](n2cc(-n3cc(-c4cnn5ccc(N6CCC[C@H](N)C6)nc45)nn3)c(C(F)F)n2)CC1 (stereo partly drawn) [Example 285] | > 0.03 | 60 to 70 | > 80 | < 0.0005 | – | – |
| Cn1c(=O)n(C2CCC(=O)NC2=O)c2cccc(CN3CC4(CCC(CN[C@H]5CC[C@H](n6cc(-n7cc(-c8ccc9cc(C(N)=O)cnn89)nn7)c(C(F)F)n6)CC5)CC4)C3)c21 (stereo partly drawn) [Example 60] | 0.01 to 0.03 | > 70 | > 80 | 0.001 to 0.005 | – | – |
| Cn1c(=O)n(C2CCC(=O)NC2=O)c2cccc(N3CCC4(CCN(C[C@H]5CC[C@H](n6cc(-n7cc(-c8cnn9ccc(NCCC(C)(C)O)nc89)nn7)c(C(F)F)n6)CC5)CC4)CC3)c21 (stereo partly drawn) [Example 126] | < 0.01 | > 70 | > 80 | < 0.0005 | – | – |
| Cn1c(=O)n(C2CCC(=O)NC2=O)c2cccc(N3CCN(C4CCN(C[C@H]5CC[C@H](n6cc(-n7cc(-c8cnn9ccc(N[C@@H]%10CCCC[C@@H]%10O)nc89)nn7)c(C(F)F)n6)CC5)CC4)CC3)c21 (stereo partly drawn) [Example 153] | < 0.01 | > 70 | > 80 | < 0.0005 | – | – |
| Cn1c(=O)n(C2CCC(=O)NC2=O)c2cccc(N3CCC4(CCN(C[C@H]5CC[C@H](n6cc(-n7cc(-c8cnn9ccc(N%10CCOCC%10)nc89)nn7)c(C(F)F)n6)CC5)C4)CC3)c21 (stereo partly drawn) [Example 39, 3-(4-(2-(((1r,4r)-4-(3-(difluoromethyl)-4-(4-(5-morpholinopyrazolo[1,5-a]pyrimidin-3-yl)-1H-1,2,3-triazol-1-yl)-1H-pyrazol-1-yl)cyclohexyl)methyl)-2,8-diazaspiro[4.5]dec-8-yl)-3-methyl-2-oxo-2,3-dihydro-1H-benzo[d]imidazol-1-yl)piperidine-2,6-dione] | < 0.01 | > 70 | > 80 | < 0.0005 | – | – |
| Cn1c(=O)n(C2CCC(=O)NC2=O)c2cccc(N3CCC(N4CCN(C[C@H]5CC[C@H](n6cc(-n7cc(-n8ccc9cc(C(N)=O)cnc98)nn7)c(C(F)F)n6)CC5)CC4)CC3)c21 (stereo partly drawn) [Example 98, 1-(1-(3-(difluoromethyl)-1-((1r,4r)-4-((4-(1-(2-(2,6-dioxopiperidin-3-yl)-3-methyl-2-oxo-3,3-dihydro-1H-benzo[d]imidazol-4-yl)piperidin-4-yl)piperazin-1-yl)methyl)cyclohexyl)-1H-pyrazol-4-yl)-1H-1-1,2,3-triazole)-1H-pyrrolo[2,3-b]pyridine-5-carboxamide] | < 0.01 | > 70 | > 80 | < 0.0005 | – | – |
| Cn1c(=O)n(C2CCC(=O)NC2=O)c2cccc(N3CCC4(CCN(C[C@H]5CC[C@H](n6cc(-n7cc(-c8cnn9ccc(N[C@H]%10CCCC[C@H]%10O)nc89)nn7)c(C(F)F)n6)CC5)CC4)CC3)c21 (stereo partly drawn) [Example 148] | 0.01 to 0.03 | > 70 | > 80 | < 0.0005 | – | – |
| Cn1c(=O)n(C2CCC(=O)NC2=O)c2cccc(N3CCN(C[C@H]4CC[C@H](n5cc(-n6cc(-c7cnn8ccc(N9CCNCC9)nc78)nn6)c(C(F)F)n5)CC4)CC3)c21 (stereo partly drawn) [Example 132, 3-(4-(1R,4R)-4-(3-difluoromethyl)-4-(4-(5-(piperazin-1-yl)pyrazolo[1,5-a]pyrimidin-3-yl)-1H-1,2,3-triazol-1-yl)-1H-pyrazol-1-yl)cyclohexyl)methyl)piperazin-1-yl)-3-methyl-2-oxo-2,3-dihydro-1H-benzoimidazol-1-yl)piperidine-2,6-dione dihydrochloride] | < 0.01 | 60 to 70 | > 80 | 0.0005 to 0.001 | – | – |
| Cn1c(=O)n(C2CCC(=O)NC2=O)c2cccc(N3CCC4(CCN(C[C@H]5CC[C@H](n6cc(-n7cc(-n8ccc9cc(C(N)=O)cnc98)nn7)c(C(F)F)n6)CC5)C4)CC3)c21 (stereo partly drawn) [Example 97, 1-(1-(3-(difluoromethyl)-1-((1r,4r)-4-((8-(1-(2,6-dioxopiperidin-3-yl)-3-methyl-2-oxo-3,3-dihydro-1H-benzo[d]imidazol-4-yl)-2,8-diazaspiro[4.5]dec-2-yl)methyl)cyclohexyl)-1H-pyrazol-4-yl)-1H-1-1,2,3-triazolyl)-1H-pyrrolo[2,3-b]pyridine-5-carboxamide] | – | – | > 80 | < 0.0005 | > 70 | < 0.01 |
| Cn1c(=O)n(C2CCC(=O)NC2=O)c2cccc(N3CCN(C[C@H]4CC[C@H](n5cc(-n6cc(-c7cnn8ccc(N9CCC(O)CC9)nc78)nn6)c(C(F)F)n5)CC4)CC3)c21 (stereo partly drawn) [Example 140] | 0.01 to 0.03 | > 70 | > 80 | < 0.0005 | – | – |
| Cn1c(=O)n(C2CCC(=O)NC2=O)c2cccc(N3CCC4(CCN(C[C@H]5CC[C@H](n6cc(-n7cc(-c8ccc9cc(C(N)=O)cnn89)nn7)c(C(F)F)n6)CC5)CC4)CC3)c21 (stereo partly drawn) [Example 85, 7-(1-(3-(difluoromethyl)-1-((1r,4r)-4-((9-(1-(2,6-dioxopiperidin-3-yl)-3-methyl-2-oxo-2,3-dihydro-1H-benzo[d]imidazol-4-yl)-3,9-diazaspiro[5.5]undecan-3-yl)methyl)cyclohexyl)-1H-pyrazol-4-yl)-1H-1,2,3-triazol-4-yl)pyrrolo[1,2-b]pyridazine-3-carboxamide] | < 0.01 | > 70 | > 80 | < 0.0005 | – | – |
| Cn1c(=O)n(C2CCC(=O)NC2=O)c2cccc(N3CCC4(CCN(C[C@H]5CC[C@H](n6cc(-n7cc(-c8ccc9cc(C(N)=O)cnn89)nn7)c(C(F)F)n6)CC5)C4)CC3)c21 (stereo partly drawn) [Example 37] | < 0.01 | 60 to 70 | > 80 | < 0.0005 | – | – |
| Cn1c(=O)n(C2CCC(=O)NC2=O)c2cccc(N3CCC(N4CCN(C[C@H]5CC[C@H](n6cc(-n7cc(-c8cnn9ccc(N%10CCC(O)CC%10)nc89)nn7)c(C(F)F)n6)CC5)CC4)CC3)c21 (stereo partly drawn) [Example 135] | < 0.01 | > 70 | > 80 | < 0.0005 | – | – |
| Cn1c(=O)n(C2CCC(=O)NC2=O)c2cccc(N3CCN(C[C@H]4CC[C@H](n5cc(-n6cc(-c7cnn8ccc(N9CCC[C@@H](O)C9)nc78)nn6)c(C(F)F)n5)CC4)CC3)c21 (stereo partly drawn) [Example 243] | < 0.01 | > 70 | > 80 | < 0.0005 | – | – |
| C[C@H]1COCCN1c1ccn2ncc(-c3cn(-c4cn([C@H]5CC[C@H](CN6CCN(C7CCN(c8cccc9c8n(C)c(=O)n9C8CCC(=O)NC8=O)CC7)CC6)CC5)nc4C(F)F)nn3)c2n1 (stereo partly drawn) [Example 59] | < 0.01 | > 70 | 70 to 80 | < 0.0005 | – | – |
| Cn1c(=O)n(C2CCC(=O)NC2=O)c2cccc(N3CCC4(CCN(C[C@H]5CC[C@H](n6cc(-n7cc(-c8cnn9ccc(N[C@H]%10CCCC[C@H]%10O)nc89)nn7)c(C(F)F)n6)CC5)C4)CC3)c21 (stereo partly drawn) [Example 147] | 0.01 to 0.03 | > 70 | > 80 | < 0.0005 | – | – |
| Cn1c(=O)n(C2CCC(=O)NC2=O)c2cccc(N[C@H]3CC[C@@H](N(C)C[C@H]4CC[C@H](n5cc(-n6cc(-c7cnn8ccc(N9CCOCC9)nc78)nn6)c(C(F)F)n5)CC4)CC3)c21 (stereo partly drawn) [Example 54] | < 0.01 | 60 to 70 | > 80 | < 0.0005 | – | – |
| Cn1c(=O)n(C2CCC(=O)NC2=O)c2cccc(N[C@H]3CC[C@H](N(C)C[C@H]4CC[C@H](n5cc(-n6cc(-n7ccc8cc(C(N)=O)cnc87)nn6)c(C(F)F)n5)CC4)CC3)c21 (stereo partly drawn) [Example 102] | 0.01 to 0.03 | < 60 | > 80 | < 0.0005 | – | – |
| Cn1c(=O)n(C2CCC(=O)NC2=O)c2cccc(N3CCC4(CCN(C[C@H]5CC[C@H](n6cc(-n7cc(-c8cnn9ccc(N%10CCC[C@H](O)C%10)nc89)nn7)c(C(F)F)n6)CC5)CC4)CC3)c21 (stereo partly drawn) [Example 142] | < 0.01 | > 70 | > 80 | < 0.0005 | – | – |
| Cn1c(=O)n(C2CCC(=O)NC2=O)c2cccc(N3CCC4(CC3)CN(C[C@H]3CC[C@H](n5cc(-n6cc(-c7ccc8cc(C(N)=O)cnn78)nn6)c(C(F)F)n5)CC3)C4)c21 (stereo partly drawn) [Example 64] | > 0.03 | 60 to 70 | > 80 | < 0.0005 | – | – |

Source: EP4759807A1, “PROTEOLYSIS TARGETING CHIMERA COMPOUND FOR DEGRADING IRAK4 AND USE THEREOF” (Shenzhen Zhongge Biological Technology Co., Ltd., priority 2023, dated 2025)
